For 17 compounds, IC50 results are on record in patent publication US20240376120A1, “CAMPTOTHECIN COMPOUND, PREPARATION METHOD THEREFOR AND USE THEREOF” (priority 2021, published 2024).

Format in all cases: cell-based
Details in all cases: Homo sapiens

Test [1] concerns MCF-7 cells (human breast cancer cells). Nature of the test: MCF-7 cell proliferation inhibitory assay (CellTiter-Glo). Here is the method:
• 1). […] Resuspend an appropriate amount of cell suspension to 4000 cells/100 μL according to the count, mixed well and then put the corresponding number of cells into a 96-well plate by pipette. • 3). Each hole of the edge was sealed with 100 μL DPBS and put into an incubator for culture. • 4). Day 1 drug addition: Prepare the storage solution of the compound to be tested 1 hour in advance. 24 h after plating, the culture medium was gradiently diluted to a concentration twice the final concentration of each group. Take out the plated cells from the incubator and add 100 μL of the corresponding 2-fold concentration medium to each well by pipette.
Day 1 detected: Take out the plate to be tested and an appropriate amount of CTG in advance and rewarm it at room temperature in the dark. 50 μL of CTG was added to each well at 24 h. Shake with the oscillator for 5 minutes, and after balancing in the dark for 5 minutes, detect the luminescence value with a microplate reader; The mixture was shaken for 5 min, and after equilibration in the dark for 5 min, the luminescence value was detected with ELISA. • 6). Day 4 detection: Take an appropriate amount of CTG 1 h in advance and rewarm it at room temperature in the dark. At the same time, take out the plate to be tested from the incubator and leave it to equilibrate at room temperature for 30 minutes; 72 h after adding the drug, 100 μL of culture medium was sucked out with pipette carefully from each cell well, and 50 μL of CTG was added. The mixture was shaken for 5 min, and after equilibration in the dark for 5 min, the luminescence value was detected with ELISA analyzer. • 7). Data analysis and processed.
Collect data and convert it into survival rate: Inhibition rate (%)=(100−(OD value of compound-OD value on the first day)/(OD value of control well-OD value on the first day))×100%
(§1) Input the compound into graphpad prism to obtain the corresponding IC50 value.
In general terms: In ATP-based viability assays light output follows the ATP content of the culture.

The subject of test [2] is MDA-MB-231 cells (human breast cancer cells). Put plainly: MDA-MB-231 cell proliferation inhibitory assay (CellTiter-Glo). The method, then:
(§2) • 1). […] Resuspend an appropriate amount of cell suspension to 3000 cells/100 μL according to the count, mixed well and then put the corresponding number of cells into a 96-well plate by pipette. • 3). Each hole of the edge was sealed with 100 μL DPBS and put into an incubator for culture. • 4). Day 1 drug addition: Prepare the storage solution of the compound to be tested 1 hour in advance. 24 h after plating, the culture medium was gradiently diluted to a concentration twice the final concentration of each group. Take out the plated cells from the incubator and add 100 μL of the corresponding 2-fold concentration medium to each well by pipette. • 5). Day 1 detected: Take out an appropriate amount of CTG 1 h in advance and the plate was allowed to equilibrate at room temperature for 30 min. 100 μL of CTG was added to each well and shaken for 5 mins, and then standed in the dark for 5 mins, the luminescence value was detected by ELISA. • 6). Day 4 detection: Take an appropriate amount of CTG 1 h in advance and rewarm it at room temperature in the dark. At the same time, take out the plate to be tested from the incubator and leave it to equilibrate at room temperature for 30 minutes; 72 h after adding the drug, 100 μL of culture medium was sucked out with pipette carefully from each cell well, and 100 μL of CTG was added. The mixture was shaken for 5 min, and after equilibration in the dark for 5 min, the luminescence value was detected with ELISA. • 7). Analyze data and write detailed experimental records.
as §1

The test system of test [3] is MDA-MB-435s cells (human melanoma cells). Nature of the test: MDA-MB-435s cell proliferation inhibitory assay (CellTiter-Glo). Here is the method: as §2
Collect data and convert it into survival rate: Inhibition rate (%)=(100−(OD value of compound−OD value on the first day)/(OD value of control well-OD value on the first day))×100%
as §1

[4] abbreviates: MCF7, 72 h, read-out: Proliferation inhibition IC50.
Where [5] appears, read: MDA-MB-231, 72 h, read-out: Proliferation inhibition IC50.
The mark [6] stands for this setting: MDA-MB-435S, 72 h, read-out: Proliferation inhibition IC50.

Read-outs that look alike come from different tables or passages of the source.

As to `CC[C@@]1(O)C(=O)OCc2c1cc1n(c2=O)Cc2c-1nc1cc(F)c(C)cc1c2[C@H](C)NC(=O)[C@H](C)O` [Example 14], the IC50 in test [1] (setting [4]) came to 8.3 nM; in test [2] (setting [5]) it was 88.6 nM; in test [3] (setting [6]), 3.8 nM.
For `CC[C@@]1(O)C(=O)OCc2c1cc1n(c2=O)Cc2c-1nc1cc3c(cc1c2[C@@H](C)N)OCO3` [Example 35b] the same measures were 6.2 nM, 7.1 nM and 1.15 nM.
As for `CC[C@@]1(O)C(=O)OCc2c1cc1n(c2=O)Cc2c-1nc1cc(F)c(C)cc1c2C(C)(C)N` [Example 7], the IC50 in test [1] (setting [4]) is 20.2 nM; in test [2] (setting [5]) it was 320 nM; in test [3] (setting [6]), 162 nM.
`CC[C@@]1(O)C(=O)OCc2c1cc1n(c2=O)Cc2c-1nc1cc(F)c(C)cc1c2[C@H](C)NC(=O)C1(O)CC1` [Example 16]: the IC50 in test [1] (setting [4]) came to 12.3 nM; in test [2] (setting [5]), 100 nM; in test [3] (setting [6]), 8.2 nM.
The like results for `CC[C@@]1(O)C(=O)OCc2c1cc1n(c2=O)Cc2c-1nc1cc(F)c(F)cc1c2[C@@H](C)N` [Example 33b] were, in that order, 8.5 nM, 24.3 nM and 0.85 nM.
`CC[C@@]1(O)C(=O)OCc2c1cc1n(c2=O)Cc2c-1nc1ccccc1c2[C@H](C)N` [Example 4]: the IC50 in test [1] (setting [4]) stood at 10.2 nM; in test [2] (setting [5]), 280 nM; in test [3] (setting [6]), 16.3 nM.
Turning to `CC[C@@]1(O)C(=O)OCc2c1cc1n(c2=O)Cc2c-1nc1cc(F)c(C)cc1c2[C@@H](C)O` [Example 12d], the IC50 in test [1] (setting [4]) turned out to be 6.8 nM; in test [1] (MCF7, read-out: MCF-7 Proliferation inhibition IC50), 6.8 nM; in test [2] (setting [5]), 12.3 nM; in test [2] (MDA-MB-231, read-out: MDA-MB-231 Proliferation inhibition IC50), 12.3 nM; in test [3] (setting [6]), 1.6 nM; in test [3] (MDA-MB-435S, read-out: MDA-MB-435s Proliferation inhibition IC50), 1.6 nM.
Take `CC[C@@]1(O)C(=O)OCc2c1cc1n(c2=O)Cc2c-1nc1cc(F)c(OC)cc1c2[C@H](C)N` [Example 30a]: the IC50 in test [1] (setting [4]) was 6.3 nM; in test [2] (setting [5]), 11.6 nM; in test [3] (setting [6]) it was 3.3 nM.
The like results for `CC[C@@]1(O)C(=O)OCc2c1cc1n(c2=O)Cc2c-1nc1cc(F)c(C)cc1c2[C@H](C)NCCN(C)C` [Example 25a] were, in that order, 25.6 nM, 40.2 nM and 6.3 nM.
For `CC[C@@]1(O)C(=O)OCc2c1cc1n(c2=O)Cc2c-1nc1ccc(OC)cc1c2[C@@H](C)N` [Example 31b] the same measures were 4.1 nM, 9.2 nM and 1 nM.
For `CC[C@@]1(O)C(=O)OCc2c1cc1n(c2=O)Cc2c-1nc1ccc(O)cc1c2C(C)O` (stereo partly drawn) [Example 12] the same measures were 50.3 nM, 1200 nM and 59.3 nM.
Consider `[2H]C([2H])([2H])[C@H](N)c1c2c(nc3cc(F)c(C)cc13)-c1cc3c(c(=O)n1C2)COC(=O)[C@]3(O)CC` [Example 43a], for which the IC50 in test [1] (MCF7, MCF-7 cells, 72 h after adding the drug, Table 1, read-out: Proliferation inhibition IC50) amounted to 5.1 nM; in test [2] (MDA-MB-231 cells, 72 h after adding the drug, Table 2, read-out: Proliferation inhibition IC50), 16.8 nM; in test [3] (MDA-MB-435s cells, 72 h after adding the drug, Table 3, read-out: Proliferation inhibition IC50) it was 3.31 nM.
As to `CC[C@@]1(O)C(=O)OCc2c1cc1n(c2=O)Cc2c-1nc1cc(F)c(C)cc1c2[C@@H](C)N1CCNCC1` [Example 41b], the IC50 was determined as 19.6 nM in test [1] (setting [4]), 30.5 nM in test [2] (setting [5]) and 3.86 nM in test [3] (setting [6]).
The like results for `CC[C@@]1(O)C(=O)OCc2c1cc1n(c2=O)Cc2c-1nc1cc(F)c(OC)cc1c2[C@@H](C)O` [Example 30d] were, in that order, 4.1 nM, 28.1 nM and 1.2 nM.
For `CC[C@@]1(O)C(=O)OCc2c1cc1n(c2=O)Cc2c-1nc1cc(F)c(C)cc1c2[C@H](C)NC` [Example 21] the same measures were 4.2 nM, 20.2 nM and 1.2 nM.
As for `CC[C@@]1(O)C(=O)OCc2c1cc1n(c2=O)Cc2c-1nc1ccc(C(F)F)cc1c2[C@@H](C)N` [Example 32b], the IC50 in test [1] (setting [4]) is 5.5 nM; in test [2] (setting [5]) it was 20.2 nM; in test [3] (setting [6]), 1.85 nM.
The like results for `CC[C@@]1(O)C(=O)OCc2c1cc1n(c2=O)Cc2c-1nc1cc(F)c(C)cc1c2[C@H](C)NCCNC` [Example 25c] were, in that order, 15.3 nM, 35.6 nM and 3.3 nM.
